Data set [1] is described as follows: Half life in mouse. Format: ADME, organism-based. The following applies: in vivo.
Data set [2] can be described thus: Toxicity in mouse assessed as induction of lethality. The following applies: in vivo.
Data set [3] deals with Glutamate [NMDA] receptor. As to the kind of experiment: Antagonist activity at NMDA receptor (unknown origin) assessed as inhibition constant. Format: protein-complex assay, Homo sapiens.

Here are results for one compound from ChEMBL document CHEMBL5260834, “Benzomorphan skeleton, a versatile scaffold for different targets: A comprehensive review” (Eur J Med Chem, 2018).

As a reminder, the half-life is the time needed for the level to fall by half in the phase considered. The low end stands for fast loss, the high end for slow loss. What is called LD50 is the dose expected to kill half of the subjects tested. By Ki is commonly meant the equilibrium dissociation constant of an inhibitor or competing ligand from its target. `CO[C@H](C)CN1CC[C@@]2(C)c3ccc(O)cc3C[C@@H]1C2(C)C`: in data set [1], the half-life was 4 h. The median lethal dose (LD50) in data set [2] came to 0.4 mg/kg. Also, the Ki in data set [3] came out at 4.5 nM.
